Measurements from PubChem BioAssay AID1963420 (Molecular Pharmacology Branch, DTP, NCI, 2024).

Test system: 494315-158-R-J1-PDC complex spheroid growth, percent test/control
Assay: Anticancer human tumor 494315-158-R-J1-PDC patient-derived soft tissue sarcoma cell line growth inhibition [Asc]
Details: for IC50: curve of first compound; for viability, T/C: stronger effect = lower value
Procedure, shortened: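 Tumor cells were grown as complex spheroids with human endothelial cells (HUVEC) and human mesenchymal stem cells as stroma. Agents were tested alone and in combination, in half-log steps down from the clinical Cmax, or from 10 microM where Cmax was unknown.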
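Note: compound exposure lasted seven days after spheroids formed for three days.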

In the case of `NC(=O)C(=Cn1cnc(-c2cc(C(F)(F)F)cc(C(F)(F)F)c2)n1)c1cncnc1` + CNC(C)C(=O)NC1CN(S(=O)(=O)c2cccc(S(=O)(=O)N3CCC4CCC(C(=O)NC(c5ccccc5)c5ccccc5)N4C(=O)C(NC(=O)C(C)NC)C3)c2)CCC2CCC(C(=O)NC(c3ccccc3)c3ccccc3)N2C1=O, the IC50 (second compound 0.01 µM) is reported as 50.5 nM, the IC50 (second compound 0.0316 µM) is reported as 12 nM and the IC50 (second compound 0.1 µM) is reported as 9.95 nM. The IC50 (second compound 0.316 µM) was 1.27 nM, the IC50 (second compound 1 µM) was less than 0.949 nM and the viability, T/C (second compound 0.01 µM, first compound 0.000949 µM) was 73.4%. The viability, T/C (second compound 0.01 µM, first compound 0.003 µM) was 70.6%, the viability, T/C (second compound 0.01 µM, first compound 0.00949 µM) was 59.4% and the viability, T/C (second compound 0.01 µM, first compound 0.03 µM) was 54.2%. The viability, T/C (second compound 0.01 µM, first compound 0.0949 µM) was 46.8%, the viability, T/C (second compound 0.01 µM, first compound 0.3 µM) was 7.92% and the viability, T/C (second compound 0.0316 µM, first compound 0.000949 µM) was 58.4%. For the same molecule, the viability, T/C (second compound 0.0316 µM, first compound 0.003 µM) was 58.8%, the viability, T/C (second compound 0.0316 µM, first compound 0.00949 µM) was 51.9% and the viability, T/C (second compound 0.0316 µM, first compound 0.03 µM) was 41.4%. For the same molecule, the viability, T/C (second compound 0.0316 µM, first compound 0.0949 µM) was 27.8%, the viability, T/C (second compound 0.0316 µM, first compound 0.3 µM) was 7.91% and the viability, T/C (second compound 0.1 µM, first compound 0.000949 µM) was 51%. The viability, T/C (second compound 0.1 µM, first compound 0.003 µM) was 64.5%, the viability, T/C (second compound 0.1 µM, first compound 0.00949 µM) was 46.6% and the viability, T/C (second compound 0.1 µM, first compound 0.03 µM) was 39.5%. It also gave a viability, T/C (second compound 0.1 µM, first compound 0.0949 µM) of 23.5%, a viability, T/C (second compound 0.1 µM, first compound 0.3 µM) of 5.3% and a viability, T/C (second compound 0.316 µM, first compound 0.000949 µM) of 49.3%. For the same molecule, the viability, T/C (second compound 0.316 µM, first compound 0.003 µM) was 50.1%, the viability, T/C (second compound 0.316 µM, first compound 0.00949 µM) was 43.8% and the viability, T/C (second compound 0.316 µM, first compound 0.03 µM) was 33.6%. It also gave a viability, T/C (second compound 0.316 µM, first compound 0.0949 µM) of 24.4%, a viability, T/C (second compound 0.316 µM, first compound 0.3 µM) of 5.39% and a viability, T/C (second compound 1 µM, first compound 0.000949 µM) of 35.7%. For the same molecule, the viability, T/C (second compound 1 µM, first compound 0.003 µM) was 36.7%, the viability, T/C (second compound 1 µM, first compound 0.00949 µM) was 40.4% and the viability, T/C (second compound 1 µM, first compound 0.03 µM) was 35.8%. For the same molecule, the viability, T/C (second compound 1 µM, first compound 0.0949 µM) was 21.8% and the viability, T/C (second compound 1 µM, first compound 0.3 µM) was 6.84%.

`CNC(C)C(=O)NC1CN(S(=O)(=O)c2cccc(S(=O)(=O)N3CCC4CCC(C(=O)NC(c5ccccc5)c5ccccc5)N4C(=O)C(NC(=O)C(C)NC)C3)c2)CCC2CCC(C(=O)NC(c3ccccc3)c3ccccc3)N2C1=O` (stereo not given) + CCN1C(C(=O)NC23CCC(C(=O)O)(CC2)CC3)C(c2cccc(Cl)c2F)C2(C(=O)Nc3cc(Cl)ccc32)C12CCCCC2 was tested, and the IC50 (second compound 0.03 µM) was 42.3 nM, the IC50 (second compound 0.0949 µM) was 38.1 nM and the IC50 (second compound 0.3 µM) was 41.1 nM. It also gave an IC50 (second compound 0.949 µM) of 83.4 nM, an IC50 (second compound 3 µM) of 36.7 nM and a viability, T/C (second compound 0.03 µM, first compound 0.00316 µM) of 87.4%. The viability, T/C (second compound 0.03 µM, first compound 0.01 µM) was 65.2%, the viability, T/C (second compound 0.03 µM, first compound 0.0316 µM) was 54% and the viability, T/C (second compound 0.03 µM, first compound 0.1 µM) was 39.5%. It also gave a viability, T/C (second compound 0.03 µM, first compound 0.316 µM) of 43.4%, a viability, T/C (second compound 0.03 µM, first compound 1 µM) of 31.9% and a viability, T/C (second compound 0.0949 µM, first compound 0.00316 µM) of 66.8%. It also gave a viability, T/C (second compound 0.0949 µM, first compound 0.01 µM) of 72.6%, a viability, T/C (second compound 0.0949 µM, first compound 0.0316 µM) of 45.8% and a viability, T/C (second compound 0.0949 µM, first compound 0.1 µM) of 42%. The viability, T/C (second compound 0.0949 µM, first compound 0.316 µM) was 31.1%, the viability, T/C (second compound 0.0949 µM, first compound 1 µM) was 26.3% and the viability, T/C (second compound 0.3 µM, first compound 0.00316 µM) was 70.9%. It also gave a viability, T/C (second compound 0.3 µM, first compound 0.01 µM) of 63.6%, a viability, T/C (second compound 0.3 µM, first compound 0.0316 µM) of 51.9% and a viability, T/C (second compound 0.3 µM, first compound 0.1 µM) of 43.9%. It also gave a viability, T/C (second compound 0.3 µM, first compound 0.316 µM) of 36.7%, a viability, T/C (second compound 0.3 µM, first compound 1 µM) of 38.5% and a viability, T/C (second compound 0.949 µM, first compound 0.00316 µM) of 71%. It also gave a viability, T/C (second compound 0.949 µM, first compound 0.01 µM) of 62.3%, a viability, T/C (second compound 0.949 µM, first compound 0.0316 µM) of 60.6% and a viability, T/C (second compound 0.949 µM, first compound 0.1 µM) of 49.2%. It also gave a viability, T/C (second compound 0.949 µM, first compound 0.316 µM) of 36.7%, a viability, T/C (second compound 0.949 µM, first compound 1 µM) of 34.4% and a viability, T/C (second compound 3 µM, first compound 0.00316 µM) of 67.6%. It also gave a viability, T/C (second compound 3 µM, first compound 0.01 µM) of 61.7%, a viability, T/C (second compound 3 µM, first compound 0.0316 µM) of 51.2% and a viability, T/C (second compound 3 µM, first compound 0.1 µM) of 41.1%. It also gave a viability, T/C (second compound 3 µM, first compound 0.316 µM) of 28.4% and a viability, T/C (second compound 3 µM, first compound 1 µM) of 31.4%.
